In patent US20250002491A1, “N,N-DIMETHYL-4-(7-(N-(1-METHYLCYCLOPROPYL)SULFAMOYL)-IMIDAZO[1,5-A]PYRIDIN-5-YL)PIPERAZINE-1-CARBOXAMIDE DERIVATIVES AND THE CORRESPONDING PYRAZOLO[1,5-A]PYRIDINE DERIVATIVES AS PARG INHIBITORS FOR THE TREATMENT OF CANCER” (FORX THERAPEUTICS AG, priority 2021, published 2025) one finds EC50 and IC50 data, which are given here for eight compounds.

Read-outs that look alike come from different tables or passages of the source. Some results are limits rather than exact numbers.

By EC50 is commonly meant the concentration needed to bring the measured effect to its halfway point. One may read the IC50 as the concentration at which inhibition is half-maximal.

One test relates to U2OS cells. The test can be described thus: Cellular viability assay (Cell Titer-Glo), U2OS. The format is cell-based. Particulars: Homo sapiens; U2OS (PARG-inhibition insensitive), 96 hours of incubation; read-out: EC50 in μM determined in U2OS cells as described under Cellular viability assay. On the procedure: (§1) NCIH-460 as a PARG-inhibition sensitive cell line and U2OS as PARG-inhibition insensitive cell line were plated at 1000 cells/well and 2000 cells/well, respectively, in 96-well white plates with clear flat bottom. After 24 hours, the compounds were added with the Tecan digital dispenser (D300e), in duplicates. The outer wells of the plate were excluded. After 96 hours of incubation, 150 μl of the growth medium were removed and 50 μl of Cell Titer-Glo (Promega) were added per well. Following an incubation of 10 minutes, luminescence was read using a plate reader (Tecan). Averaged values of the samples were normalized to DMSO treated control samples. Curves were fit as % of the control vs. log of the compound concentration using a 4 parameter log-logistic function: […]
(In ATP-based viability assays light output follows the ATP content of the culture.)

The next test deals with T1, hPARG (Homo sapiens, UniProt Q86W56, A967T/C963S/D927K/H446G/I916T/L447S/L473S/M841I/N479S/R811K/S802A/S858P/T924D).
T1 construct: human PARG (448-976 [H446G, L447S, L473S, N479S); 6His-TwinStrep (protease-cleavable) (N, cleaved yes); host or cells: E. coli BL21 (DE3)
T1 sequence (Q86W56 446-976 H446G/L447S/L473S/N479S/S802A/R811K/M841I/S858P/I916T/T924D/D927K/C963S/A967T): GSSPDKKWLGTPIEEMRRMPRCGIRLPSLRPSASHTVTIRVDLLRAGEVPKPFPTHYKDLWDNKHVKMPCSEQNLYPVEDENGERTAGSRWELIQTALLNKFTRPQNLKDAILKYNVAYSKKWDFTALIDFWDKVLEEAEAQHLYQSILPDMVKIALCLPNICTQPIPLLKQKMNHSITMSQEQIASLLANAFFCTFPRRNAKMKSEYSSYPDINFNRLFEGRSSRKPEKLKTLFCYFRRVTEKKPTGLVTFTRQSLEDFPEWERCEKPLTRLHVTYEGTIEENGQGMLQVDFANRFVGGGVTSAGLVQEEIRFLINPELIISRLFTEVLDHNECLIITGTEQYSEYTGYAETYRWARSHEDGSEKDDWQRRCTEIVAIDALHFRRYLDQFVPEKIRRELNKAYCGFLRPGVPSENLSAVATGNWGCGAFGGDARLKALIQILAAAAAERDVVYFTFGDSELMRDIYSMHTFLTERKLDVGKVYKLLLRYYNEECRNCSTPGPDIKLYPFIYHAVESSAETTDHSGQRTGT
As to the kind of experiment: PARG enzymatic IC50 assay (absorbance, ADP-ribose-pNP substrate). The test is classed as biochemical. Conditions: 2 hours incubation of enzyme with compound; 30 nM hPARG, 800 μM ADP-pNP; read-out: IC50 in μM determined in PARG enzymatic assay (PARG protein and 2 hours incubation). On the procedure:
A codon optimized gene encoding human PARG (448-976 [H446G, L447S, L473S, N479S, S802A, R811K, M841I, S858P, 1916T, T924D, D927K, C963S, A967T]) was synthesized by Genscript, and cloned into pET15b (Ncol/BamHI) with an N-terminal, Thrombin protease cleavable 6His-TwinStrep tag. Expression of the protein in E. coli BL21 (DE3) was induced by addition of 0.2 mM IPTG to a shake flask culture grown to OD600=0.8 at 37° C. Growth was allowed to continue at 30° C. for a further 20 hours before harvesting by centrifugation and storage of the cell pellet at −80° C.
Protein was purified by IMAC and SEC: frozen cell pellets (typically 40 g wet weight) were resuspended by homogenization in 5 volumes buffer A (25 mM Tris/HCl pH 8.0, 200 mM NaCl, 2 mM DTT), supplemented with 1 mg of DNase I from bovine pancreas (Sigma-Aldrich) and protease inhibitors (Roche Complete™ EDTA-free protease inhibitor tablet), and lysed by passage through a Constant Systems BasicZ homogenizer. The lysate was clarified by centrifugation for 60 minutes at 25,000 g, 4° C., and the lysate supernatant was loaded onto 5 ml StrepTrap HP (Cytiva) pre-equilibrated with buffer A. The column was washed with buffer A (˜10 CV), then buffer B containing 1M KCl (˜5 CV), and then the protein was eluted with buffer A containing 2.5 mM d-Desthiobiotin. Pooled fractions containing 6HisTwinStrep-TEV-hPARG were incubated with TEV protease overnight at 4° C. hPARG was separated from uncleaved material and Thrombin protease through gel filtration with Superdex75 sizing column (GE Healthcare) pre-equilibrated with SEC buffer (15 mM Tris/HCl pH 8.5, 100 mM NaCl, 2 mM DTT). Pooled fractions containing pure hPARG were concentrated using a 10 k MWCO spin concentrator (VivaSpin) to 10 mg/mL, and then either used immediately for crystallisation or snap-frozen in liquid nitrogen for storage at −80° C.
PARG Enzymatic IC50 Assay
PARG enzyme as incubated with compound or vehicle (DMSO) for 15 minutes or 2 hours in a 384 well plate. After adding the PARG substrate ADP-ribose-pNP, the plate was read for absorbance intensity at 405 nm. The vehicle (DMSO) with high absorbance intensity represents no inhibition of enzymatic reaction while the low control (no enzyme) with low absorbance intensity represents full inhibition of enzymatic reaction.
• hPARG: Peak Protein, 30 nM • Substrate: ADP-pNP, 800 μM, Jena Bioscience catalog #NU-955 • Reaction time: 60 minutes • Assay buffer: 50 mM Tris-HCl pH 8.0, 100 mM NaCl, 2 mM DTT • Temperature: 30° C. • Total volume: 30 μL
• 0% inhibition control: DMSO • 100% inhibition control: No enzyme
The protocol that was used for enzyme reaction and detection is as follows: • 1. Transfer 100 nL of the final concentration of test compounds or vehicle (DMSO) to the appropriate wells of a microtiter plate. • 2. Centrifuge the plate at 1000 rpm for 1 minute. • 3. Transfer 14.6 μL of 2× final concentration of enzyme in assay buffer or assay buffer alone to the appropriate wells. • 4. Centrifuge the plate at 1000 rpm for 1 minute. • 5. Incubate the plate at room temperature for 15 minutes or 2 hours. • 6. Transfer 15.4 μL of 2× substrate in assay buffer to all the test wells. • 7. Centrifuge the plate at 1000 rpm for 1 minute. • 8. Read the plate on a plate reader (e.g., Spark Tecan).

Another test relates to PARG in U2OS cells. As to the kind of experiment: Cellular PAR chain assay (flow cytometry, PAR chain positive cells). The test is classed as cell-based. Conditions: 1 hour compound pretreatment. On the procedure: The ability of compounds to inhibit PARG in response to DNA damage, was assessed with U2OS cells pretreated with the compounds for 1 hour, following a 1-hour treatment with or without the DNA alkylating agent temozolomide (TMZ). […] The cells were incubated for 2 hours at room temperature with a mouse monoclonal antibody against poly (ADP) ribose (PAR) polymer. The cells were washed and incubated with an anti-mouse Alexa-488 conjugated secondary antibody for 1 hour at room temperature. Propidium iodide staining was used to determine DNA content in the cells (staining at 4° C. overnight). The fluorescence intensity of the cells was assessed by flow cytometry (Cytoflex from Beckmann) and the percentage of PAR chain positive cells (gated in relation to TMZ+DMSO treated control) was determined. PAR chain positive cells % were fit against the concentration of the compound using a 4 parameter log-logistic function, generating PAR chain EC50 values: […]
(In general: In flow cytometry, cells or beads pass a laser one at a time.)

Another test concerns NCIH-460 cells. As to the kind of experiment: Cellular viability assay (Cell Titer-Glo), NCIH-460. Particulars: Homo sapiens, NCI-H460; NCIH-460 (PARG-inhibition sensitive), 96 hours of incubation; read-out: EC50 in μM determined in NCIH-460 cells as described under Cellular viability assay. The test is classed as cell-based. On the procedure:
as §1

Setting [1] is: without TMZ, read-out: EC50 in μM determined in cellular assay as described under Cellular PAR chain assay (conditions without treatment of TMZ).
Where [2] appears, read: Homo sapiens, then 1-hour treatment with TMZ, read-out: EC50 in μM determined in cellular assay as described under Cellular PAR chain assay (conditions with treatment of TMZ).

Consider `Cc1ccc(-c2ncn3c(N4CCN(C(=O)N(C)C)CC4)cc(S(=O)(=O)NC4(C)CC4)cc23)cn1` [Example 1, N,N-dimethyl-4-(7-(N-(1-methylcyclopropyl)sulfamoyl)-1-(6-methylpyridin-3-yl)imidazo[1,5-a]pyridin-5-yl)piperazine-1-carboxamide], for which the EC50 is over 16.8 µM in the test with U2OS cells, over 10 µM in the test on PARG in U2OS cells (setting [1]), 1.1 µM with PARG in U2OS cells (setting [2]) and 13.4 µM with NCIH-460 cells. The IC50 on hPARG is 0.064 µM.
`CN(C)C(=O)N1CCN(c2cc(S(=O)(=O)NC3(C)CC3)cc3c(-c4ccc(C(F)F)nc4)ncn23)CC1` [Example 3, 4-(1-(6-(difluoromethyl)pyridin-3-yl)-7-(N-(1-methylcyclopropyl)sulfamoyl)imidazo[1,5-a]pyridin-5-yl)-N,N-dimethylpiperazine-1-carboxamide]: the EC50 with U2OS cells is over 20 µM; in the test with PARG in U2OS cells (setting [1]), over 10 µM; in the test on PARG in U2OS cells (setting [2]) it was 0.218 µM; in the test with NCIH-460 cells, 4.47 µM. Also, the IC50 on hPARG came to 0.066 µM.
The matching figures for `Cc1ccc(-c2cnn3c(N4CCN(C(=O)N(C)C)CC4)cc(S(=O)(=O)NC4(C)CC4)cc23)cn1` [Example 5, N,N-dimethyl-4-(5-(N-(1-methylcyclopropyl)sulfamoyl)-3-(6-methylpyridin-3-yl)pyrazolo[1,5-a]pyridin-7-yl)piperazine-1-carboxamide]: over 20 µM, over 10 µM, 0.223 µM, 3.22 µM and 0.054 µM.
The like results for `CN(C)C(=O)N1CCN(c2cc(S(=O)(=O)NC3(C)CC3)cc3c(-c4ccc(C(F)F)nc4)cnn23)CC1` [Example 7, 4-(3-(6-(difluoromethyl)pyridin-3-yl)-5-(N-(1-methylcyclopropyl)sulfamoyl)pyrazolo[1,5-a]pyridin-7-yl)-N,N-dimethylpiperazine-1-carboxamide] were, in that order, over 20 µM, over 10 µM, 0.328 µM, 3.94 µM and 0.028 µM.
As for `COC(=O)c1cnn2c(N3CCN(C(=O)N(C)C)CC3)cc(S(=O)(=O)NC3(C)CC3)cc12` [Example 8, Methyl 7-(4-(dimethylcarbamoyl)piperazin-1-yl)-5-(N-(1-methylcyclopropyl)sulfamoyl)pyrazolo[1,5-a]pyridine-3-carboxylate], the EC50 in the test on U2OS cells is over 20 µM; with NCIH-460 cells, 7.22 µM. In addition, on hPARG, the IC50 was determined as 0.043 µM.
With `CN(C)C(=O)N1CCN(c2cc(S(=O)(=O)NC3(C)CC3)cc3c(-c4nnc(C(F)F)s4)cnn23)CC1` [Example 10, 4-(3-(5-(difluoromethyl)-1,3,4-thiadiazol-2-yl)-5-(N-(1-methylcyclopropyl)sulfamoyl)pyrazolo[1,5-a]pyridin-7-yl)-N,N-dimethylpiperazine-1-carboxamide], the EC50 with U2OS cells was over 20 µM; in the test with PARG in U2OS cells (setting [1]), over 10 µM; with PARG in U2OS cells (setting [2]), 0.266 µM; in the test on NCIH-460 cells, 1.3 µM. The IC50 at hPARG was 0.042 µM.
Take `CN(C)C(=O)N1CCN(c2cc(S(=O)(=O)NC3(C)CC3)cc3c(-c4nnc(C(F)F)o4)cnn23)CC1` [Example 11, 4-(3-(5-(difluoromethyl)-1,3,4-oxadiazol-2-yl)-5-(N-(1-methylcyclopropyl)sulfamoyl)pyrazolo[1,5-a]pyridin-7-yl)-N,N-dimethylpiperazine-1-carboxamide]: the EC50 was over 20 µM in the test on U2OS cells, over 10 µM in the test on PARG in U2OS cells (setting [1]), 0.739 µM in the test with PARG in U2OS cells (setting [2]) and 4.58 µM in the test on NCIH-460 cells. Further, the IC50 at hPARG is 0.098 µM.
The like results for `Cc1nnc(-c2cnn3c(N4CCN(C(=O)N(C)C)CC4)cc(S(=O)(=O)NC4(C)CC4)cc23)s1` [Example 12, N,N-dimethyl-4-(3-(5-methyl-1,3,4-thiadiazol-2-yl)-5-(N-(1-methylcyclopropyl)sulfamoyl)pyrazolo[1,5-a]pyridin-7-yl)piperazine-1-carboxamide] were, in that order, over 20 µM, over 10 µM, 1.49 µM, 6.05 µM and 0.038 µM.
